Data from publication PMC11599207, “Identification of IspD as a novel target for tuberculosis treatment using compound M6” (Frontiers in Microbiology, 2024).

Target: T1, IspD (2-C-methyl-D-erythritol 4-phosphate cytidylyltransferase) (Mycolicibacterium smegmatis, UniProt A0R560)
T1 construct: recombinant IspD from pET28a-ispD, His trap purified, approximately 26 kDa
T1 sequence (A0R560 1-222): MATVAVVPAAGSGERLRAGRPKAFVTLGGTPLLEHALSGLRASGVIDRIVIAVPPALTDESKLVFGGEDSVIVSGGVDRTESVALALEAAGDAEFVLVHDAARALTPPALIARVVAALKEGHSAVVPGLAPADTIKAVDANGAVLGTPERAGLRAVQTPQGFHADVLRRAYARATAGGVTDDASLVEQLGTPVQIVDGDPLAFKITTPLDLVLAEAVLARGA
Assay: ammonium molybdate pyrophosphate absorbance assay; double-reciprocal kinetics
Assay type: biochemical

C[C@](O)(CO)[C@H](O)COP(=O)(O)O [MEP, 2-C-methyl-D-erythritol 4-phosphate]
ammonium molybdate pyrophosphate absorbance assay; double-reciprocal kinetics: indicating that M6 acts as a non-competitive inhibitor of the substrate MEP

Nc1ccn([C@@H]2O[C@H](COP(=O)(O)OP(=O)(O)OP(=O)(O)O)[C@@H](O)[C@H]2O)c(=O)n1 [CTP]
ammonium molybdate pyrophosphate absorbance assay; double-reciprocal kinetics: M6 acts as a non-competitive inhibitor of the substrate CTP (Figure 3D)
